Measurements published in patent US20120277208A1 (ASTELLAS PHARMA INC., priority 2009, published 2012).

Assays:
[1] = target: T1, recombinant human liver type GK (GST-hGK2) (Homo sapiens, UniProt P35557); test: Measurement of glucokinase (GK) activation; type: biochemical; settings: 10 min; test compound final concentration of 10 μM; 5 mM glucose; 27° C.; relative to DMSO
T1 construct: made in house; host or cells: E. coli BL21
T1 sequence (P35557 1-466 isoform P35557-2): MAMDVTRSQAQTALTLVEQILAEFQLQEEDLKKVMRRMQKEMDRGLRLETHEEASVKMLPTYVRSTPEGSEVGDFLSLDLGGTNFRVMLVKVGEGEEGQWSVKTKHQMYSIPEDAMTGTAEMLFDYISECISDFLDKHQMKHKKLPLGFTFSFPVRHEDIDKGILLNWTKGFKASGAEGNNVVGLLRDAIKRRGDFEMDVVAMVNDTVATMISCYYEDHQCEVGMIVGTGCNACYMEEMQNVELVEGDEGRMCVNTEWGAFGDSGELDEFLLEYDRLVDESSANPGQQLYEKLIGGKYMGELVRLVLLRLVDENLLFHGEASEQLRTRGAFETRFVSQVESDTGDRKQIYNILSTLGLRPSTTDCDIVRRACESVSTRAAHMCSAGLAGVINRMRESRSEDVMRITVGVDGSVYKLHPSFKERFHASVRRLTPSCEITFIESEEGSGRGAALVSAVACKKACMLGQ
Procedure: Test Example 1 Measurement of Glucokinase (GK) Activation
The present test was carried out in accordance with the method described in Science 301: 370-373, 2003 with partial modification, and is summarized as below.
First, cloning of GK (GenBank No. AK122876) was carried out. PCR was carried out using 5′-[…]-3′ (SEQ ID NO: 1) and 5′-[…]-3′ (SEQ ID NO: 2) as primers, and pME18S-FL3-Glucokinase isoform 2 as a template. The resulting reaction product was TA-cloned into a pGEM-T easy vector, and then digested with EcoRI and XhoI, and the fragment was ligated to a pGEX-5X-1 vector digested in the same manner. Using this plasmid DNA (pGEX-human Glucokinase 2), a recombinant human liver type GK (GST-hGK2) fused with GST (Glutathione S-transferase) was expressed in E. coli (strain BL21), and purified by Glutathione Sepharose.
The reaction of GK was carried out at 27° C. on a 96-well plate. First, 1 μL of a test compound diluted with dimethylsulfoxide (DMSO) (final concentration of 10 μM) was added to a 89 μL of an enzyme mixed liquid (25 mM HEPES pH 7.4, 25 mM KCl, 2 mM MgCl2, 1 mM ATP, 0.1% BSA, 1 mM DTT, 1 mM NADP (nicotinamide adenine dinucleotide phosphate), 2.5 U/mL glucose-6-phosphate dehydrogenase, GST-hGK2 adjusted to ΔODCont as described later to be about 0.05 to 0.10, all of which are final concentrations). Subsequently, 10 μL of a substrate solution (final concentration of 5 mM glucose) was added thereto to initiate the reaction. In order to quantify a final product NADPH, an absorbance at a wavelength of 340 nm was measured, and the GK activation (%) of the test compound was calculated from the increase (DOD) in the absorbance during the first 10 minutes after the initiation of the reaction, using the following formula.
GK activation (%)=[(ΔODTest)−(ΔODCont)]/(ΔODCont)×100
ΔODTest: ΔOD at the test compound
Further, Ex indicates Example compound Number.

[2] = tested on: ICR mice; test: Oral glucose loading test in normal mice; type: in vivo; settings: Mus musculus, AUC lowering rate of blood glucose, immediately before to 2 hours after glucose loading, vs solvent control, 10 mg/kg orally, ICR mice fasted overnight, glucose loading after 30 minutes, read-out: Blood glucose level lowering rate (%)
Procedure: Test Example 2 Oral Glucose Loading Test in Normal Mice
The test compound was dissolved in a solvent (5% Cremophor, 5% aqueous DMSO solution), 10 mg/kg of the test compound was orally administered to ICR mice after fasting overnight, and after 30 minutes, oral glucose loading was carried out. Immediately before the administration of the test compound, immediately before the glucose loading, and 0.25, 0.5, 1, and 2 hours after the glucose loading, blood was collected and blood glucose levels were measured. An AUC lowering rate (%) of the blood glucose levels from immediately before the glucose loading to 2 hours after the glucose loading with respect to that of the solvent control was calculated.

Compound	activation at 10 µM [1]	inhibition in vivo at 10 mg/kg [2]
COC[C@H](C)Oc1cc(Oc2ccc(-c3nc(C(N)=O)no3)nc2)cc(C(=O)Nc2ccn(C)n2)c1 [Ex 1]	295%	37%
CNC(=O)c1noc(-c2ccc(Oc3cc(OC(C)C)cc(C(=O)Nc4ccn(C)n4)c3)cn2)n1 [Ex 2]	338%	59%
CNC(=O)c1nnc(-c2ccc(Oc3cc(OC(C)C)cc(C(=O)Nc4ccn(C)n4)c3)cn2)o1 [Ex 3]	380%	64%
CC(C)Oc1cc(Oc2ccc(-c3nc(C(N)=O)no3)nc2)cc(C(=O)Nc2ccn(C)n2)c1 [Ex 9]	319%	46%
CC(C)Oc1cc(Oc2ccc(-c3nc(C(=O)N(C)C)no3)nc2)cc(C(=O)Nc2ccn(C)n2)c1 [Ex 10]	380%	61%
CC(C)Oc1cc(Oc2cnc(N(CC3CC3)C(=O)C3CCOCC3)cn2)cc(C(=O)Nc2ccn(C)n2)c1 [Ex 23]	347%	52%
C[C@@H](CO)Oc1cc(Oc2cnc(N(CC3CC3)C(=O)C3CCOCC3)cn2)cc(C(=O)Nc2ccn(C)n2)c1 [Ex 24]	269%	49%
COC[C@H](C)Oc1cc(Oc2cnc(N(CC3CC3)C(=O)CN(C)C)cn2)cc(C(=O)Nc2ccn(C)n2)c1 [Ex 29]	287%	49%
CC(C)Oc1cc(Oc2cnc(-c3noc(C(=O)N(C)C)n3)cn2)cc(C(=O)Nc2ccn(C)n2)c1 [Example 67]	498%	57%
CC(C)Oc1cc(Oc2cnc(N(CC3CC3)C(=O)N3CCNC3=O)cn2)cc(C(=O)Nc2ccn(C)n2)c1 [Example 74]	298%	45%
CC(C)Oc1cc(Oc2cnc(-c3nnc(C(=O)N(C)C)o3)cn2)cc(C(=O)Nc2ccn(C)n2)c1 [Example 98]	498%	54%
CC(=O)N(CC1CC1)c1cc(Oc2cnc(N(CC3CC3)C(=O)C3CCOCC3)cn2)cc(C(=O)Nc2ccn(C)n2)c1 [Example 101]	345%	48%
COCCOCC(=O)N(CC1CC1)c1cnc(Oc2cc(OC(C)C)cc(C(=O)Nc3ccn(C)n3)c2)cn1 [Example 119]	376%	40%
COC[C@H](C)Oc1cc(Oc2ccc(-c3noc(C(=O)N(C)C)n3)nc2)cc(C(=O)Nc2ccn(C)n2)c1 [Example 130]	502%	65%
CNC(=O)c1noc(-c2cnc(Oc3cc(OC(C)C)cc(C(=O)Nc4ccn(C)n4)c3)cn2)n1 [Example 138]	316%	61%
COCCOCC(=O)N(CC1CC1)c1cnc(Oc2cc(O[C@@H](C)CO)cc(C(=O)Nc3ccn(C)n3)c2)cn1 [Example 156, 3-[(5-{(cyclopropylmethyl)[(2-methoxyethoxy)acetyl]amino}pyrazin-2-yl)oxy]-5-{[(2S)-1-hydroxypropan-2-yl]oxy}-N-(1-methyl-1H-pyrazol-3-yl)benzamide]	237%	18%
C[C@@H](CO)Oc1cc(Oc2cnc(N(CC3CC3)C(=O)[C@H]3CCCO3)cn2)cc(C(=O)Nc2ccn(C)n2)c1 [Example 158]	237%	29%
C[C@@H](CO)Oc1cc(Oc2ccc(-c3nc(C(N)=O)no3)nc2)cc(C(=O)Nc2ccn(C)n2)c1 [Example 162]	306%	25%
